Results reported in PMC3214022, “Plasmodium falciparum Parasites Are Killed by a Transition State Analogue of Purine Nucleoside Phosphorylase in a Primate Animal Model” (PLoS ONE, 2011).
“And” between values parts separate entries of the source, which are not always exact repeats. Equal entries are not always repeated.

Key:
[1] = test system: P. falciparum (FVO strain); assay: Efficacy study: parasitaemia in infected Aotus monkeys (thick blood smears); format: in vivo, Aotus lemurinus lemurinus; details: for Parasitaemia: oral 50 mg kg^−1 twice a day for 7 days, monkeys ITM 1-3 = c3-c5
Description: Laboratory bred Aotus lemurinus lemurinus monkeys (0.75–0.89 kg) were maintained as described. […] Blood samples were collected before the treatment started (t = 0), 0.05 h, 0.5 h, 1 h, 2 h, 6 h, 24 h, 48 h, and 6, 12 and 18 days after the first dose from each monkey and processed as described below. Pharmacokinetic parameters were calculated using PKSolver. For efficacy studies, Aotus monkeys were inoculated intravenously with 5×10^6 parasites of the FVO strain of P. falciparum in an approved treatment protocol. […] Parasitaemia was determined by Giemsa-stained thick blood smears prepared daily from the marginal ear vein [41]. Blood samples were collected from each monkey and transferred to tubes containing lithium heparin, centrifuged and both plasma and blood cells were frozen at −80 °C until analysis. Animals received a physical examination and blood chemistry profiles were monitored after treatment as described previously. Any monkey not responding appropriately to treatment was cured of its infection with mefloquine (40 mg kg^−1). […] The day of clearance is defined as the first of three consecutive days in which the thick blood films are parasite negative. The day of recrudescence is the first of three consecutive days of positive thick blood films after a period of clearance. Suppression is defined as a transient decrease in the parasite count post-treatment without clearance.

human erythrocytes = assay: Polyamine and purine levels in cultured cells after BCX4945 treatment (HPLC, UPLC/MS/MS); format: cell-based; details: uninfected erythrocytes, 5 µM BCX4945, 24 h
Description: Polyamines from 0.5 M PCA extracts were analyzed as the dansyl-derivatives by HPLC/fluorescence on a Waters Millennium system. Protein concentration was determined with a bicinchoninic acid (BCA) protein assay kit according to the manufacturer's instructions (Pierce) using BSA as a standard. Data from biological samples were normalized to the protein content.
Samples from blood cells, plasma and media were extracted and analyzed in duplicate. […] Samples were incubated for 20 min at 4 °C and neutralized with 5 M KOH at 10∶1 (v/v, HClO4/KOH) for 20 min at 4 °C. Plates were centrifuged (10 min at 4,000 rpm, 4°C) and supernatants were filtered through a MultiScreen® Filter Plate with Ultracel®-10 Membrane (Millipore). Metabolite and inhibitor levels were quantified by UPLC/MS/MS using a Xevo TQ mass spectrometer (Waters). […] Quantitative determination was performed in ESI positive-ion mode using multiple-reaction monitoring (MRM) mode. The ESI capillary voltage was 0.3 kV, source temperature was set at 150 °C and desolvation temperature at 450 °C. Data acquisition and analysis were carried out by MassLynx V4.1 and QuanLynx software (Waters). The concentration of the metabolites was calculated by interpolation of the observed analyte/internal standard peak-area ratio with the corresponding calibration curve.

[2] = oral 50 mg kg^−1 twice a day for seven days

SMILES: Nc1nc2c(CN3CC(O)C(CO)C3)c[nH]c2c(=O)[nH]1 (stereo not shown) [BCX4945, 4′-deaza-1′-aza-2′-deoxy-1′-(9-methylene)-Immucillin-G]
- Parasitaemia ([1]; day 1 post-treatment): 0 Parasites per µl×10^3
- Parasitaemia ([1]; day of treatment 6): 0 Parasites per µl×10^3
- Parasitaemia ([1]; day −1 (before treatment)): 0.7 Parasites per µl×10^3 and 0.5 Parasites per µl×10^3
- clearance of P. falciparum infection [1, 2]: cleared P. falciparum infections between the fourth and the seventh day of treatment
- parasitaemia cleared, of the original infection [1, 2]: > 99.99%
- time monkeys remained parasite-negative post-treatment [1, 2]: up to nine days
- response to treatment (category) ([1]; oral BCX4945, Aotus model): clearance and recrudescence
- Adenosine, cell pellet (human erythrocytes): 2.60±0.03 (0.2) nmoles/mg protein
- Adenosine, supernatant (human erythrocytes): 0.6±0.2 (0.2) µM
- BCX4945 level, cell pellet (human erythrocytes): 36±12 (0.07) nmoles/mg protein
- BCX4945 level, supernatant (human erythrocytes): 4.0±0.2 (0.01) µM
- Hypoxanthine, cell pellet (human erythrocytes): 0 nmoles/mg protein
- Hypoxanthine, supernatant (human erythrocytes): 0 (0.04) µM
- Inosine, cell pellet (human erythrocytes): 37±6 (0.04) nmoles/mg protein
- Inosine, supernatant (human erythrocytes): 8±3 (0.08) µM
- MTA, cell pellet (human erythrocytes): 0 nmoles/mg protein
- MTA, supernatant (human erythrocytes): 0 µM
- MTI, cell pellet (human erythrocytes): 0 nmoles/mg protein
- MTI, supernatant (human erythrocytes): 0 µM
- Putrescine, cell pellet (human erythrocytes): 0 nmoles/mg protein
- Spermidine, cell pellet (human erythrocytes): 0.060±0.003 nmoles/mg protein
- Spermine, cell pellet (human erythrocytes): 0.030±0.002 nmoles/mg protein
